# Test results taken from patent US4849405A, “Oral insulin and a method of making the same” (priority 1986, dated 1989).
# Test system: white laboratory rats
# Assay: Blood glucose level in rats before and three hours after administration of oral insulin preparation
# Assay type: in vivo
# Conditions: rat; preparation containing 5 units of bovine insulin; three hours after administration
# Description: Two white laboratory rats, weighing 177 and 197 grams, respectively, were used in this experiment. One rat was administered a preparation of oral insulin according to the present invention containing 5 units of insulin; a formulation of the oral insulin according to the present invention containing 10 units of bovine insulin was administered to the second rat. Blood samples were drawn from each animal before and three hours after administration of the oral insulin preparation. The results given below are expressed as the percentage of the pre-experiment blood glucose level.
# One white laboratory rat weighing 181 grams received a non-encapsulated preparation containing 5 units of free bovine insulin. This animal served as the control. After three hours, blood glucose level was 98.7% of the pre-experiment blood glucose level.
substance,measurement,value
free bovine insulin: non-encapsulated preparation containing 5 units of free bovine insulin; served as the control,blood glucose level as percentage of the pre-experiment blood glucose level,98.7%
